Measured values taken from patent US20200281897A1, “INDAZOLE DERIVATIVES FOR CANCER TREATMENT” (Servicio Andaluz de Salud, priority 2016, published 2020).

Experiments:
Format in all cases: cell-based, human
[1] = tested on: U266, U266-LR7, RPMI and RPMI-LR5; experiment: Synergy of WIN-55 with anti-myeloma agents, MTT and combination index
Procedure: The evaluation of the synergy of the indazole compound WIN-55 with other anti-myeloma agents, such as dexamethasone and melphalan, was done by evaluating cell viability by means of an MTT assay.
Unless otherwise indicated, an experiment representative of at least three independent experiments is shown. For all the statistical analyses, the data was analyzed by means of Student's T-test with the SPSS software with a statistical significance P≤0.05. The means and standard deviations were also determined. The synergy was calculated using R as described in the Calcusyn software; a combination index (CI)<1 indicates synergy, and >1 indicates antagonism.

MOLM-13 = experiment: WST-1 cell viability assay, MOLM-13; conditions: MOLM-13, 18 hours
Procedure: U937, NB-4, KG-1, and MOLM-13 (DMSZ, Braunschweig, Germany) were cultured in complete RPMI 1640 medium (with 2 mM of L-glutamine, 100 mg of penicillin, 100 μg/ml of streptomycin, and with 10% FBS), supplemented with 10 mM HEPES, 1×NaPuvuvato, and 1× non-essential amino acids.
(§1) The cell lines and primary cells were cultured in 96-well plates (5×10e5 cells per well) with the addition of the indicated concentrations of WIN 55,212-2 or PGN cannabinoids in DMSO or with the solvent only in triplicate at 18, 48, and 72 hours. Caspase inhibitor Z-VAD (OMe)-FMK or the CB2 receptor antagonist PGN-8, -37, and -70, together with the cannabinoid WIN-55,212-2, were also added. Cell viability was determined by means of the WST-1 assay [2-(4-iodophenyl)-3-(4-nitrophenyl)-5-(2,4-disulfophenyl)-2H-tetrazolium] according to the manufacturer's instructions (Dojindo Molecular Technologies). Optical densities were measured at 450 nm using a Multiskan™ Go Microplate plate reader (Thermo Fisher Scientific, Waltham, Mass., USA).
Now it will be analyzed whether the exposure to cannabinoids had any effect on the viability of the tumor cells in vitro. […]

HL60 [2] = experiment: WST-1 cell viability assay, HL60; conditions: HL60, 18 hours
Procedure: (§2) The cell lines of acute myeloid leukemia KG-1a and HL60 (American Type Culture Collection) were cultured in IMDM medium supplemented with 2 mM of L-glutamine, […] of penicillin, 100 μg/ml of streptomycin, and 15% fetal bovine serum (FBS).
as §1
(§3) Now it will be analyzed whether the exposure to cannabinoids had any effect on the viability of the tumor cells in vitro. To that end, the human AML U937, HL60, KG-1a, NB-4, MOLM-13, and KG-1 cell lines were cultured in serum-free medium and exposed to various concentrations of WIN-55,212-2 (range of 100 nM to 50 μM) for 18 hours, and cell viability was measured by means of WST-1 assays (Table 1). […]

[3] = tested on: hematopoietic stem cells (CD34+); experiment: Viability of hematopoietic stem cells from healthy donors (MTT); conditions: 0-50 μM, 18 hours
Procedure: (§4) In vitro studies were carried out using six different human MM cell lines, U266, RPMI8226, MM1S, MM1R, U266-LR7, and RPMI-LR5. For ex vivo assays, human primary cells from healthy donors and MM patients were used (Table 1). Human MM cell lines U266, RPMI8226, and MM1.S were acquired from ATCC and lines U266-LR7, RPMI-LR5, and MM1.R were kindly provided by Dr. Enrique Ocio (Hospital Universitario de Salamanca, Spain). The primary cells were obtained from bone marrow (BM) aspirates or peripheral blood (PB) samples, and the peripheral blood mononuclear cells (PBMCs) were isolated by Ficoll-Hypaque centrifugation and washed twice in phosphate buffered saline (PBS) containing 1% BSA. Hematopoietic stem cells and B and T lymphocytes were isolated from healthy PB donors by positive immunomagnetic separation using human MACS CD34+, CD19+, and CD3+ microbeads, respectively. MM plasma cells were obtained from the bone marrow (BM) of patients with an infiltration of cells of more than 30% (Table 1). […]
The MM cell lines and primary cells were exposed to different doses of indazole compounds, and viability was evaluated at 18, 48, and 72 hours. […] Cell viability was determined using the MTT assay Cell Counting Kit-8 (Dojindo, Kumamoto, Japan) according to the manufacturer's instructions.

KG-1a = experiment: WST-1 cell viability assay, KG-1a; conditions: 18 hours
Procedure: as §2, §1, §3

[4] = tested on: granulomonocytes (CD64+) and lymphocytes (CD45+); experiment: Ex vivo viability of normal cell subpopulations of patient bone marrow by flow cytometry
Procedure: as §4, with “BSA.” for “BSA. Hematopoietic stem cells and B and T lymphocytes were isolated from healthy PB donors by positive immunomagnetic separation using human MACS CD34+, CD19+, and CD3+ microbeads, respectively. MM plasma cells were obtained from the bone marrow (BM) of patients with an infiltration of cells of more than 30% (Table 1).”
The cell viability of the MM cell lines and primary cells from healthy PB donors was also evaluated by flow cytometry using 7-AAD/Annexin V. Patient bone marrow (BM) cells were analyzed using 7-AAD with a combination of monoclonal antibodies against myeloma-associated antigens (anti-CD56-APC, anti-CD45-Pacific Blue, and anti-CD38-APC-H7 [BD Biosciences]) and antibodies for distinguishing the granulomonocytic population (anti-CD64-FITC) and lymphocytic population (anti-CD45-Pacific Blue). The cells were acquired by means of FACSCanto II flow cytometer (BD Biosciences) and analyzed using Infinicyt™ Software (Cytognos, Spain).

RPMI8226 = experiment: MTT cell viability assay, myeloma cell line RPMI; conditions: RPMI, MTT, 18 hours, doses 0-50 μM; read-out: IC50, cell viability
Procedure: In vitro studies were carried out using six different human MM cell lines, U266, RPMI8226, MM1S, MM1R, U266-LR7, and RPMI-LR5. For ex vivo assays, human primary cells from healthy donors and MM patients were used (Table 1). Human MM cell lines U266, RPMI8226, and MM1.S were acquired from ATCC and lines U266-LR7, RPMI-LR5, and MM1.R were kindly provided by Dr. Enrique Ocio (Hospital Universitario de Salamanca, Spain). The primary cells were obtained from bone marrow (BM) aspirates or peripheral blood (PB) samples, and the peripheral blood mononuclear cells (PBMCs) were isolated by Ficoll-Hypaque centrifugation and washed twice in phosphate buffered saline (PBS) containing 1% BSA. Hematopoietic stem cells and B and T lymphocytes were isolated from healthy PB donors by positive immunomagnetic separation using human MACS CD34+, CD19+, and CD3+ microbeads, respectively. MM plasma cells were obtained from the bone marrow (BM) of patients with an infiltration of cells of more than 30% (Table 1). The MM plasma cells were identified using CD138+, and were then distinguished from the other cell populations by flow cytometry using a suitable combination of antibodies: anti-human CD64-FITC, CD34-PE, CD56-APC, CD38-APC-H7, and CD45-Pacific Blue antibodies (BD Biosciences, San Jose, Calif.). All the cell lines were cultured in RPMI-1640 supplemented with 10% fetal bovine serum (FBS) and 1% penicillin/streptomycin, as recommended by the supplier. For human primary cells, the concentration of FBS was up to 20%.
The MM cell lines and primary cells were exposed to different doses of indazole compounds, and viability was evaluated at 18, 48, and 72 hours. Pretreatments with the ceramide synthesis inhibitor (FB1), pan-caspase (ZVAD-FMK), and CB antagonists (PGN-8, PGN-37, and PGN-70) were performed for 30 minutes, and then the cells were incubated with indazole compound WIN-55 up to 18 hours. Cell viability was determined using the MTT assay Cell Counting Kit-8 (Dojindo, Kumamoto, Japan) according to the manufacturer's instructions.

HL60 [5] = experiment: Mitochondrial damage and ER stress in HL60 cells; conditions: HL60, 50 μM, 15 and 30 minutes
Procedure: The controls that are untreated and the cells (10^6 cells per assay) treated with WIN-55,212-2 (50 μM) for 15 and 30 minutes at 37° C. were stained with 5 μM MitoSOX probe [Molecular Probes (Invitrogen)] to detect the mitochondrial superoxide. The MitoSOX signal was detected by flow cytometry.
The detailed methodology for analyzing mitochondrial membrane potential (APm), Western Blot analysis, and immunocytofluorescence analysis has been described elsewhere 29

Compound: CS(=O)(=O)O.Cc1c(C(=O)c2cccc3ccccc23)c2cccc3c2n1[C@H](CN1CCOCC1)CO3 [WIN-55, (R)-(+)-[2,3-dihydro-5-methyl-3-(4-morpholinomethyl)-pyrrolo[1,2,3]-1,4-benzoxazin-6-yl]-1-naphthalenylmethanone mesylate]
- combination effect (combination index) with dexamethasone ([1]; WIN-55 20 μM (U266, U266-LR7, RPMI-LR5) or 10 μM (RPMI) plus DEX): synergistic effect
- combination effect (combination index) with melphalan ([1]; WIN-55 20 μM (U266, U266-LR7, RPMI-LR5) or 10 μM (RPMI) plus MPH): synergistic effect
- % viable cells at 50 μM (MOLM-13): 56.6%
- IC50 (MOLM-13): 25.9 µM
- % viable cells at 50 μM (HL60 [2]): 28.4%
- IC50 (HL60 [2]): 19.4 µM
- hematopoietic stem cell viability [3]: not affected
- % viable cells at 50 μM (KG-1a): 42.1%
- IC50 (KG-1a): 22 µM
- cell viability of normal cell subpopulations from patient bone marrow ([4]; granulomonocytes (CD64+) and lymphocytes (CD45+), 0-50 μM, 18 hours): barely affected
- effect on the lymphocyte population (CD45+) ([4]; highest dose tested, 50 μM): induced an antiproliferative effect
- IC50 (RPMI8226): 11.7 µM
- mitochondrial damage and ER stress (HL60 [5]): early mitochondrial damage and ER stress
